# Molecular target: T1, Aβ1-42 (Homo sapiens, UniProt P05067)
# T1 construct: Scyllo-inositol and amyloid monomers (Aβ1-42) were compartmentalised in droplets
# Experiment: Inhibition of Aβ1-42 aggregation in microdroplet gel beads, flow cytometric analysis
# Type: biochemical
# Details: HF488Aβ1-42 with scyllo-inositol in droplets, amyloid:inhibitor ratios 1:1 or 1:20, versus control without inhibitor; flow cytometry (FIG. 12)
# Method: FIG. 12: Inhibition of aggregation by scyllo-inositol. Scyllo-inositol and amyloid monomers (Aβ1-42) were compartmentalised in droplets and incubated at ratios of amyloid:inhibitor of 1:1 (central bar at each time point) or 1:20 (right-hand bar at each time point), respectively. The left-hand bar at each time point represents a control with no scyllo-inositol.
# A microfluidic droplet generator with a flow focusing geometry was used to generate water-in-oil droplets. The contents of the droplets were determined by the content of the supply stream: peptide buffer solution was mixed with agarose gel solution and trapped by HFE7500 oil containing a surfactant, e.g. 0.5% (w/w) fluorous tri-block copolymers. […]
# Since the processed gel beads were stored in aqueous buffer solution, they could be tested via flow cytometry or FACS, a technique requiring aqueous carrier fluid, in order to assess the aggregation process and compare different intensity of aggregates inside agarose beads. Incubated and washed agarose beads with Hilyte488-labelled Aβ1-40 aggregates were sent to FACS and the beads with fluorescent aggregates were counted. […] The percentage of beads containing aggregates was calculated using the program Summit. […]
# T1 sequence (P05067 672-713 limits assumed): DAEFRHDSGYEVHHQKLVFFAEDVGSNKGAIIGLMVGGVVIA
smiles,measurement,value
O[C@H]1[C@H](O)[C@@H](O)[C@H](O)[C@@H](O)[C@@H]1O [scyllo-inositol],inhibition of aggregation of Aβ1-42 monomers in gel beads,inhibition of aggregation by scyllo-inositol was detected
